Earlier results as cited in patent US6034057A, “Peptide inhibitors of fibronectine” (Zeneca Limited, priority 1995, dated 2000).
Bridge positions count the residues as written; N and C are the ends. Ends that are not written are not given here. * marks the point of attachment. Acetyl(1-adamantyl) = O=C(CC12CC3CC(CC(C3)C1)C2)*

Experiments:
fibronectin [1] = system: fibronectin
αvβ3 = αvβ3 (Homo sapiens, UniProt P05106+P06756)
αIIbβ IIIa = αIIbβ IIIa (Homo sapiens, UniProt P05106+P08514)
fibronectin [2] = system: fibronectin; remark: listed apart in the source
[3] = system: 120 kDa chymotryptic fragment of fibronectin

Sequence of αvβ3 (P06756 31-889 limits assumed): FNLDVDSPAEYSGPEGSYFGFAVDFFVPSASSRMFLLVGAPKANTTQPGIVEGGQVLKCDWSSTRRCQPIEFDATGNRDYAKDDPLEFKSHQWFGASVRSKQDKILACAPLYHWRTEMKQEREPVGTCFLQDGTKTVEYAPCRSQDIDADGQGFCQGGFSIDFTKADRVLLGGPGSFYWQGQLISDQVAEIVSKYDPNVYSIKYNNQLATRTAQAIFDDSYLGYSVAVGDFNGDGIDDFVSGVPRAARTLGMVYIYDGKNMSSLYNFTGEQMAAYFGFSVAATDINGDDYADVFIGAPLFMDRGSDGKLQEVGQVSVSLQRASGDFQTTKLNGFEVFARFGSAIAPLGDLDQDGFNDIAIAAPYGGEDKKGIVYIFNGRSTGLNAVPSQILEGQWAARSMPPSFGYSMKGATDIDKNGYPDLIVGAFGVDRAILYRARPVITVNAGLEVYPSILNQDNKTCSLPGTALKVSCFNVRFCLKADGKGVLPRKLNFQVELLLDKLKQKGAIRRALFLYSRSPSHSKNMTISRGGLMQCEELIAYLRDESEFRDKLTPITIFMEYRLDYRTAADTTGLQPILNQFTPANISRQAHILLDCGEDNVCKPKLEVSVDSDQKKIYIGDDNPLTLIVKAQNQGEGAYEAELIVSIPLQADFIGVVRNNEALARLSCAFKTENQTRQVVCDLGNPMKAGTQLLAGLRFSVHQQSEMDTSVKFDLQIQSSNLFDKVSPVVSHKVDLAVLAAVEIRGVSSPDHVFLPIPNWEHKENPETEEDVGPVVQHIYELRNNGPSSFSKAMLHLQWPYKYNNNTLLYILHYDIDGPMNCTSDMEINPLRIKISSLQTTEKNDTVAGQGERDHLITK
Sequence of αvβ3 (P06756 891-1048 partner limits assumed): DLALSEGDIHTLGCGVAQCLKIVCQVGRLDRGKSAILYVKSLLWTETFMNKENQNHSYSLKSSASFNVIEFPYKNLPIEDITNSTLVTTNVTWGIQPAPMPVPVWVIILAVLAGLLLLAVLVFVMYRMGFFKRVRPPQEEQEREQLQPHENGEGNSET
Sequence of αvβ3 (P05106 27-788): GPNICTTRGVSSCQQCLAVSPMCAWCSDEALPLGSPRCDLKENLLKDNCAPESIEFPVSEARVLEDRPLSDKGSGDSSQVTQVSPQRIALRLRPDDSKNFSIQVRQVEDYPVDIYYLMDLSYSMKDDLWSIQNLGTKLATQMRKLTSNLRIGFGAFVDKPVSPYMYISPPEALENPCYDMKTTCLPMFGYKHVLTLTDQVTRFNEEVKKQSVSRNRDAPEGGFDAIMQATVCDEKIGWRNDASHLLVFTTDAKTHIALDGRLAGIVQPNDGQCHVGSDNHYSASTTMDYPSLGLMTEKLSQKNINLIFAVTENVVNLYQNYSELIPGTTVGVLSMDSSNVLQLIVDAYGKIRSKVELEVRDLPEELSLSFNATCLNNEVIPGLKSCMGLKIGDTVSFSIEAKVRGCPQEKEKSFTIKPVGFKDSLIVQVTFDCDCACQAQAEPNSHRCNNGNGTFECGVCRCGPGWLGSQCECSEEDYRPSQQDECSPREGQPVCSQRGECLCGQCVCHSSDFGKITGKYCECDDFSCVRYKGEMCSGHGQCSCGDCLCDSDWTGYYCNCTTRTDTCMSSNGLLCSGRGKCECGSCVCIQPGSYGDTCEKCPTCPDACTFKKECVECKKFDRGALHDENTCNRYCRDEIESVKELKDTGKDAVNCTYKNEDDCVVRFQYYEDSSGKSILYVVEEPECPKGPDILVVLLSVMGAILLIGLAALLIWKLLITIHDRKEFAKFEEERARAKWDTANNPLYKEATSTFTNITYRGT

1-adamantaneacetyl-Cys-Gly-Arg-Gly-Asp-Ser-Pro-Cys ({Acetyl(1-adamantyl)}-CGRGDSPC; disulfide 1-8 (inferred))
inhibition of binding of Jurkat cells to fibronectin coated plates (fibronectin [1]): inhibited the binding of Jurkat cells to fibronectin coated plates | inhibition of function in αvβ3-dependent assay (αvβ3): inhibited function | inhibition of function in αIIbβ IIIa-dependent assay (αIIbβ IIIa): inhibited function

Arg-Cys-Asp-thioproline-Cys
inhibition of leukocyte cell adhesion to fibronectin (fibronectin [2]): inhibitor of leukocyte cell adhesion to fibronectin | inhibition of binding to the 120 kDa chymotryptic fragment of fibronectin [3]: inhibited the binding to the 120 kDa chymotryptic fragment of fibronectin
